The text below walks through data of article PMC11390765 (Cancer Chemotherapy and Pharmacology, 2024).

Marks after values point to notes of the source that are not given here.

The nature of data set [1]: Plasma pharmacokinetics of capivasertib and its glucuronide metabolite. Type of data set: in vivo, human. To be noted: for Ctrough cycle 1, day 13: 12 h post day 12 capivasertib evening dose; for Ctrough cycle 1, day 9: after 3 off-capivasertib-dosing days; for tmax: median (range).
Data set [2] concerns all three isoforms of AKT. Set-up: method as in PMID 22294718. The note with it: cited from earlier work.
Where [3] appears, read: geometric mean (gCV%), listed as Capivasertib.

By CL/F is commonly meant clearance divided by bioavailability, as obtained after extravascular dosing. As to `NC1(C(=O)N[C@@H](CCO)c2ccc(Cl)cc2)CCN(c2nc[nH]c3nccc2-3)CC1` [capivasertib], in data set [1] (geometric mean (gCV%), 12-h dosing interval, day 12 of cycle 1, capivasertib 400 mg BID), the AUCτ came out at 8499 ng·h/mL. In addition, the “Ctrough cycle 1, day 13” value is recorded as 281.5 ng/mL in data set [1] (geometric mean (gCV%)) and 281.5^f (53.3) ng/mL in data set [1] (setting [3]). Besides, the “Ctrough cycle 1, day 9” value in data set [1] (geometric mean (gCV%)) is recorded as 10.96 ng/mL; in data set [1] (setting [3]) it was 10.96^e (137.0) ng/mL. Besides, the Cmax in data set [1] (geometric mean (gCV%), day 12 of cycle 1, 4th day on capivasertib 400 mg BID, with single oral midazolam 1 mg) turned out to be 1779 ng/mL. Further, the t½λz in data set [1] (geometric mean (gCV%), day 12 of cycle 1, capivasertib 400 mg BID) came out at 3.76 h. Moreover, the CL/F in data set [1] (geometric mean (gCV%), day 12 of cycle 1, capivasertib 400 mg BID oral) was determined as 46.4 L/h. Besides, the tmax was 1.5 h in data set [1] (day 12 of cycle 1, capivasertib 400 mg BID) and 1.48^a (0.6–5.5) h in data set [1] (day 12 of cycle 1, capivasertib 400 mg BID, listed as Capivasertib). For the same molecule, the “inhibition of AKT isoforms” value in data set [2] is reported as “potent, selective inhibitor”.
